# From ChEMBL document CHEMBL5505953, “Facilitating the development of molecular glues: Opportunities from serendipity and rational design” (Eur J Med Chem, 2024)
# Key:
# [1] = molecular target: Protein cereblon/Tyrosine-protein kinase BTK (Homo sapiens, UniProt Q06187+Q96SW2); conditions: ramos
# [2] = molecular target: Protein cereblon/Zinc finger protein Helios (Homo sapiens, UniProt Q96SW2+Q9UKS7); conditions: hek293t
# [3] = molecular target: Cystic fibrosis transmembrane conductance regulator (Homo sapiens, UniProt P13569)
# [4] = tested on: HeLa; experiment: cells; conditions: Homo sapiens, 48 h
# [5] = tested on: A549; experiment: cells; conditions: Homo sapiens, A549, 48 h
# [6] = tested on: MCF7; experiment: cells; conditions: Homo sapiens, MCF7, 48 h
# [7] = tested on: PC-3; experiment: cells; conditions: Homo sapiens, PC-3, 48 h
# [8] = tested on: NCI-H2122; experiment: cells; conditions: Homo sapiens, NCI-H2122, 48 h
# [9] = tested on: NCI-H1563; experiment: cells; conditions: Homo sapiens, NCI-H1563, 48 h
# [10] = molecular target: RNA-binding protein 39 (Homo sapiens, UniProt Q14498)
# [11] = molecular target: CDK12/Cyclin K (Homo sapiens, UniProt Q9NYV4)
# [12] = tested on: LN-229; experiment: cells; conditions: Homo sapiens, LN-229, 144 h
# [13] = molecular target: Cyclin-K (Homo sapiens, UniProt O75909); conditions: hct-116
# [14] = tested on: A549; experiment: cells; conditions: Homo sapiens, A549, 72 h
# [15] = tested on: HCT-116; experiment: cells; conditions: Homo sapiens, HCT-116, 72 h
# [16] = tested on: MDA-MB-231; experiment: cells; conditions: Homo sapiens, MDA-MB-231, 48 h
# [17] = tested on: HCC38; experiment: cells; conditions: Homo sapiens, HCC38, 48 h
# [18] = molecular target: Cereblon/Casein kinase I alpha (Homo sapiens, UniProt P48729+Q96SW2); conditions: molm-13
# [19] = molecular target: B-cell lymphoma 6 protein (Homo sapiens, UniProt P41182)
# [20] = molecular target: 14-3-3 protein beta/alpha (Homo sapiens, UniProt P31946)
# [21] = molecular target: Protein cereblon (Homo sapiens, UniProt Q96SW2)
# [22] = molecular target: Estrogen receptor (Homo sapiens, UniProt P03372)
# Chain of Estrogen receptor (P03372 whole entry): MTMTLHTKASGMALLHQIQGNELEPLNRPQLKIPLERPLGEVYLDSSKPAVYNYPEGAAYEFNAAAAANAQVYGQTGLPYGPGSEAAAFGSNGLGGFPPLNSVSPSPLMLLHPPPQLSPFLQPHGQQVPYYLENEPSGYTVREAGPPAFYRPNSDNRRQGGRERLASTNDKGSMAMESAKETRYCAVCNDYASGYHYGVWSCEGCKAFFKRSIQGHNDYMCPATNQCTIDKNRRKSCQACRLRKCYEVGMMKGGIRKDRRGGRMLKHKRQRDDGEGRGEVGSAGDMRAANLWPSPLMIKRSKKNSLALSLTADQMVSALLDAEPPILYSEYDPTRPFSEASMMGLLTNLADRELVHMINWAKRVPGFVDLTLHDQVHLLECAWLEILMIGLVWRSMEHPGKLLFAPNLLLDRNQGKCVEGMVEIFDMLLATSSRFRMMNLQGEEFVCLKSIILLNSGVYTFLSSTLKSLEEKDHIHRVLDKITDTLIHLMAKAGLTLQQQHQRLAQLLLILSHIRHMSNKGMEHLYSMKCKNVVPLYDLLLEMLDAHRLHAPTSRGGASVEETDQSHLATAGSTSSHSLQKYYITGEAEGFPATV
# Chain of CDK12/Cyclin K (O75909 whole entry): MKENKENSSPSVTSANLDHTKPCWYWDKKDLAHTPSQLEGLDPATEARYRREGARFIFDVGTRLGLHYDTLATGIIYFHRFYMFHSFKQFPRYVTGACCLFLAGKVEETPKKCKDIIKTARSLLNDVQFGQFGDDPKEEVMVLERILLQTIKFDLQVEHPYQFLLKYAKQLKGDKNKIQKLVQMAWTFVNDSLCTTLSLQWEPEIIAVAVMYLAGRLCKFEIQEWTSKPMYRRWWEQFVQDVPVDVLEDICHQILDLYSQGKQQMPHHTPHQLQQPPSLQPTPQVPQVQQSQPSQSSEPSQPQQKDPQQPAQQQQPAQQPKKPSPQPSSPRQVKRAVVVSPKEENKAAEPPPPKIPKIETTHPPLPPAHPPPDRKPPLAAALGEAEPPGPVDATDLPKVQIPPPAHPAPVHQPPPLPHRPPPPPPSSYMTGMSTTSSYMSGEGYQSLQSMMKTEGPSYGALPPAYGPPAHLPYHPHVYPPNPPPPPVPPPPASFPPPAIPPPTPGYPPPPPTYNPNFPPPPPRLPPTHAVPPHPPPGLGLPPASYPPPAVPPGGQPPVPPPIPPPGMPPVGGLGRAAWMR
# Chain of CDK12/Cyclin K (Q9NYV4 whole entry): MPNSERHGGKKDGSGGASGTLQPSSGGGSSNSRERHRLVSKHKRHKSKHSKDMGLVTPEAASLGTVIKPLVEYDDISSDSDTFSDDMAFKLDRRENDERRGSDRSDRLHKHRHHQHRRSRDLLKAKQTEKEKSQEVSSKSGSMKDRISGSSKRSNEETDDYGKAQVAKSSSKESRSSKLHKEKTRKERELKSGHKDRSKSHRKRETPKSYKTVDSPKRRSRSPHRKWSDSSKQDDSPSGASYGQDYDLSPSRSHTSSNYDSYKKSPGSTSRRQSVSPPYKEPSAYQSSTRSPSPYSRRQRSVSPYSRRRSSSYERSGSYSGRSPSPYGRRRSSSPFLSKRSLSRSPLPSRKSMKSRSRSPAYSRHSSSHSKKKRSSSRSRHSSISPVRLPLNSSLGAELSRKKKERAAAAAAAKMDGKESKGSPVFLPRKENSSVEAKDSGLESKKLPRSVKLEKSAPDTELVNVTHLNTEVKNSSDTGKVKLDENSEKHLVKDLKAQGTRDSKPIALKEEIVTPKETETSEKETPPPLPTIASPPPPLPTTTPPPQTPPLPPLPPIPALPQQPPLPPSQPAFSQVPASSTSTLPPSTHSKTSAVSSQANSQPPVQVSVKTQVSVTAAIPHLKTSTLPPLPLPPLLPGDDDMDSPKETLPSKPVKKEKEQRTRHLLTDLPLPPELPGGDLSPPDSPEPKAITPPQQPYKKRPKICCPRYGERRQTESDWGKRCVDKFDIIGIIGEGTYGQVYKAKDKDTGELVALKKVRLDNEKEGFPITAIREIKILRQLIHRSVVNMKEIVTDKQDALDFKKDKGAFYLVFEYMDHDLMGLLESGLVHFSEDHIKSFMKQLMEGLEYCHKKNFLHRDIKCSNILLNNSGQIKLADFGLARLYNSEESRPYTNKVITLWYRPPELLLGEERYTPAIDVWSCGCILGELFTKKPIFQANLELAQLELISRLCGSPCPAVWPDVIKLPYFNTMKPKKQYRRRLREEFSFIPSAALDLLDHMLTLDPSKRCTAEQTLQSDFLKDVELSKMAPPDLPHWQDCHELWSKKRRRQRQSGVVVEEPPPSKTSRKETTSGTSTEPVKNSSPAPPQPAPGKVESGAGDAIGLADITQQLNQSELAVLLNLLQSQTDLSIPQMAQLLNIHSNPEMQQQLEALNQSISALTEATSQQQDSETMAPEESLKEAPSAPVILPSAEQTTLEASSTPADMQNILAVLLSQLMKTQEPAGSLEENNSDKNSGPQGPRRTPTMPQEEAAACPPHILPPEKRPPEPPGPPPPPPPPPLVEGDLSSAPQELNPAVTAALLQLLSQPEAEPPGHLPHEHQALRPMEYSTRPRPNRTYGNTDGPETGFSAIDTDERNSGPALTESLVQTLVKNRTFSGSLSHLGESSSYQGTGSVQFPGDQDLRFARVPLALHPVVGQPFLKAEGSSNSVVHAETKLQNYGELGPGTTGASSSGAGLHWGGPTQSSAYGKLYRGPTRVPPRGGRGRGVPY
# Chain of Protein cereblon/Zinc finger protein Helios (Q96SW2 whole entry): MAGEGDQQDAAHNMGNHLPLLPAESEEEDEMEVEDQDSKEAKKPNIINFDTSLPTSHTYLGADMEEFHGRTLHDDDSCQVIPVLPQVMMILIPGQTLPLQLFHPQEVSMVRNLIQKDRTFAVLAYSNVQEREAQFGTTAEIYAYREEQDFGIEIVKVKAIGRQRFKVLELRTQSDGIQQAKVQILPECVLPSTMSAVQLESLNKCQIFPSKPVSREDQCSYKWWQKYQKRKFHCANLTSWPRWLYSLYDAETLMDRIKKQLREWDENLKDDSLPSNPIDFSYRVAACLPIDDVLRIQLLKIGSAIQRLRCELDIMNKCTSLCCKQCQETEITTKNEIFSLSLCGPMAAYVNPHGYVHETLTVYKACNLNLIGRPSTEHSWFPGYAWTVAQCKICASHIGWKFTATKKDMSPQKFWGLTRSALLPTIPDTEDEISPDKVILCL
# Chain of Protein cereblon/Zinc finger protein Helios (Q9UKS7 whole entry): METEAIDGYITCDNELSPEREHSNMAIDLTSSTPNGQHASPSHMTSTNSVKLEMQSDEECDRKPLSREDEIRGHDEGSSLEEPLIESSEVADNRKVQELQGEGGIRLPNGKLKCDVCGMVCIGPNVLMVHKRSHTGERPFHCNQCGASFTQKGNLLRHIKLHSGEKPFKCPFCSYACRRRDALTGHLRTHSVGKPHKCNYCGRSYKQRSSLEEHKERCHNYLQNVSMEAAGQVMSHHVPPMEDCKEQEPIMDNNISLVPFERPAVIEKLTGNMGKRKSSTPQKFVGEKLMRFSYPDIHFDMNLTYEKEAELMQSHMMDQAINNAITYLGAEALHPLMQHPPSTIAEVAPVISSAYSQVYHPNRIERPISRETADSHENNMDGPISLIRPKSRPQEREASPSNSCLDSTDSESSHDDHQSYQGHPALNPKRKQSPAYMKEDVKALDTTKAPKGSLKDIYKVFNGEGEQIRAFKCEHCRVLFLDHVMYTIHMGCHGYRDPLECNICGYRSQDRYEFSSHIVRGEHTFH
# Chain of Cyclin-K (O75909 whole entry): as the sequence (O75909 whole entry) above
# Chain of Protein cereblon/Tyrosine-protein kinase BTK (Q06187 whole entry): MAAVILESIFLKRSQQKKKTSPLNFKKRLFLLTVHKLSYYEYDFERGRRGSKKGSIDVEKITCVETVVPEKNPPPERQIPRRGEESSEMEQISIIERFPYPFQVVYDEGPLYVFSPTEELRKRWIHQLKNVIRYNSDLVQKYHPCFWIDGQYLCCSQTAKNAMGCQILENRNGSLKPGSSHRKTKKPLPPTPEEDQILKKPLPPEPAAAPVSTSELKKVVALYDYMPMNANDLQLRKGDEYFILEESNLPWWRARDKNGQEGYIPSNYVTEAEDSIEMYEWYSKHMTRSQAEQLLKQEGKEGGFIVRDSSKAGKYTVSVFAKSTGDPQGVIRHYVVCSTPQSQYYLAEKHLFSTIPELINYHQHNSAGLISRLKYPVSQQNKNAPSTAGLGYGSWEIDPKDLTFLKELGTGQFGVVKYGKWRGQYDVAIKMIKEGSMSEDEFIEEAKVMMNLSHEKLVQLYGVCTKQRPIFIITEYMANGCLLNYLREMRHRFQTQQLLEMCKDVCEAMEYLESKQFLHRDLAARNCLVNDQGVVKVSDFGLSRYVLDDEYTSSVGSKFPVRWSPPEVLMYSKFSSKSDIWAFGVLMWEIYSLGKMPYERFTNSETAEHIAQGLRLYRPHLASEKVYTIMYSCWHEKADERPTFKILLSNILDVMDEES
# Chain of Protein cereblon/Tyrosine-protein kinase BTK (Q96SW2 whole entry): as the sequence (Q96SW2 whole entry) above
# Chain of Cereblon/Casein kinase I alpha (P48729 whole entry): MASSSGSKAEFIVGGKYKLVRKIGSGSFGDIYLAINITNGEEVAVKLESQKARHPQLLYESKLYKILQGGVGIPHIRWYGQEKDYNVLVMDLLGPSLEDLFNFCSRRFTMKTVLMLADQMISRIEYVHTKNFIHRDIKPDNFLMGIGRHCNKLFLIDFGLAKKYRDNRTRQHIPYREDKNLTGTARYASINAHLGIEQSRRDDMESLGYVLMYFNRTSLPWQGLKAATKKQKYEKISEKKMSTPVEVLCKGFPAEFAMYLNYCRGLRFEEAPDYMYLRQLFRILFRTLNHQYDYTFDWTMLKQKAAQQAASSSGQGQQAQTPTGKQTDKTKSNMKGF
# Chain of Cereblon/Casein kinase I alpha (Q96SW2 whole entry): as the sequence (Q96SW2 whole entry) above
# Chain of 14-3-3 protein beta/alpha (P31946 whole entry): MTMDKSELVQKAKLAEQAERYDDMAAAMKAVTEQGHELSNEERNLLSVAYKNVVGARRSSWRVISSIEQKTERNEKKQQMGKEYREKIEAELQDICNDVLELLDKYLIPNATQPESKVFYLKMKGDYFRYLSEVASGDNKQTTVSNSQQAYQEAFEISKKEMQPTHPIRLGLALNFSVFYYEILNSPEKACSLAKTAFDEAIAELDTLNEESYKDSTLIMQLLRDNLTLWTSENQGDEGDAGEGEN
smiles,measurement,setting,value
Nc1ncnc2c1c(-c1ccc(Oc3ccccc3)cc1)nn2[C@H]1CCCN(C(=O)CCCCCCCCNc2ccc3c(c2)C(=O)N(C2CCC(=O)NC2=O)C3=O)C1 (stereo partly specified),DC50,[1],50 nM
O=C1CCC(N2Cc3cc(C4CCNCC4)ccc3C2=O)C(=O)N1 (stereo unspecified),DC50,[2],> 50000 nM
N=C(N)NCCC[C@@H]1NCc2ccccc2Sc2ccccc2CNC(=O)[C@H](Cc2ccc(O)cc2)NC(=O)[C@H](CCCN)NC1=O,IC50,[3],36100 nM
CCN(CC)c1ccc(C2=NNC(=O)CC2C)cc1[N+](=O)[O-] (stereo unspecified),EC50,[4],10 nM
same,EC50,[5],10 nM
same,EC50,[6],10 nM
same,EC50,[7],10 nM
same,EC50,[8],10 nM
same,EC50,[9],10 nM
Cc1ccc(S(=O)(=O)N/N=C/c2cc(Br)ccc2O)cc1,IC50,[10],400 nM
O=C(CSc1nc2ccccc2[nH]1)Nc1ccc(Cl)cn1,IC50,[11],400 nM
N#Cc1ccc2nc(NC(=O)Nc3cccc(Cl)c3)sc2c1,IC50,[12],850 nM
Cc1cccc(Nc2nc(CC(=O)Nc3ncc(C)s3)cs2)n1,DC50,[13],132 nM
same,IC50,[14],1300 nM
same,IC50,[15],1300 nM
O=C(/C=C/C=C/C=C/C1CCCCC1)NC1=C[C@@](O)(/C=C/C=C/C=C/C(=O)NC2=C(O)CCC2=O)[C@@H]2O[C@@H]2C1=O,EC50,[16],13800 nM
same,EC50,[17],4500 nM
O=C(CSc1nnc2c(n1)[nH]c1ccccc12)Nc1ccc(Cl)cn1,IC50,[11],400 nM
Cc1ccc(C(=O)N2CSCC2C(=O)/N=c2/[nH]cc(C)s2)o1 (stereo unspecified),IC50,[11],400 nM
O=C1CCC(N2Cc3c(CNC(=O)c4ccc(F)cc4)cccc3C2=O)C(=O)N1 (stereo unspecified),DC50,[18],11 nM
CNC(=O)COc1cc2cc(Nc3nc(N4C[C@H](C)C[C@H](C)C4)ncc3Cl)ccc2n(C)c1=O,IC50,[19],< 3 nM
O=C(COc1ccccc1P(=O)(O)O)NCCc1ccccc1,IC50,[20],5200 nM
O=C1CCC(N2Cc3cc(C4CCN(Cc5ccccc5)CC4)ccc3C2=O)C(=O)N1 (stereo unspecified),DC50,[2],4000 nM
NS(=O)(=O)c1ccc(S(=O)(=O)Nc2cccc3c(Cl)c[nH]c23)cc1,IC50,[21],360 nM
O=C(C1=C(O)C(=O)N(c2ccccc2O)C1c1ccc([N+](=O)[O-])cc1)c1ccccc1 (stereo unspecified),IC50,[22],75000 nM
O=C(Nc1ccc(Cl)c([N+](=O)[O-])c1)Nc1nc2ccccc2s1,IC50,[12],2300 nM
